Source: patent US20250263370A1 (Tay Therapeutics Limited, priority 2022, published 2025)
Values joined by “and” are separate entries in the source; they are usually repeats but may differ in a detail not shown here. Equal entries are not always repeated. Where two headings read alike, the source gives them in different places.

Columns and labels:
BRD4 BD1 = BRD4 BD1 (Homo sapiens (Human), UniProt O60885); assay: NanoBRET bromodomain assay, NanoLuc-BRD4-BD1 fusion in HEK293 cells; assay type: cell-based; conditions: top concentration 10 μM
[1] = Pharmacokinetics and plasma concentration of Example 101 in Lewis rats after oral administration (CIA study); assay type: in vivo, Lewis rat; conditions: for concentration at 21 day / concentration at 0.5 h / concentration at 1 h / concentration at 2 h / concentration at 4 h / concentration at 8 h / concentration at 10 h / concentration at 12 h / concentration at 14 h / concentration at 0.25 h / concentration at 24 h / AUC(0-inf) / AUC(0-t) / half-life / Cmax / MRT inf / Tmax: Lewis, rat, plasma; for AUC(0-inf) / AUC(0-t) / half-life / Cmax / MRT inf / Tmax: po; for Cmax: read-out: Cmax; for MRT inf: read-out: MRTInf—obs; for Tmax: read-out: Tmax
[2] = Lewis rats, oral, 10 mg/kg, day 20, mean
[3] = 10 mg/kg, Lewis rats, oral, 10 mg/kg, day 20, mean
[4] = 10 mg/kg, oral, day 0, 10 mg/kg, Mean
[5] = 10 mg/kg, oral, day 0, 10 mg/kg, per test subject
[6] = 10 mg/kg, oral, day 20, 10 mg/kg, per test subject
[7] = oral, day 0, 10 mg/kg, per test subject

With CNC(=O)c1[nH]c(C(=O)NC2CCC2)cc1O[C@@H](C)c1ccccc1 (stereo in doubt) [Example 101, N^5-cyclobutyl-N^2-methyl-3-(1-phenylethoxy)-1H-pyrrole-2,5-dicarboxamide] the IC50 (BRD4 BD1) was ≥ 10 µM, the “Plasma concentration” value ([1]; Day 21, Group 5 (CIA), 3 mg/kg, per animal) was 37.5 ng/mL and 59.4 ng/mL and 64.9 ng/mL and 49.5 ng/mL and 65.2 ng/mL and 71.9 ng/mL and 69.6 ng/mL and the “Plasma concentration” value ([1]; Day 21, Group 6 (CIA), 10 mg/kg, per animal) was 270 ng/mL and 134 ng/mL and 209 ng/mL and 281 ng/mL and 251 ng/mL and 313 ng/mL and 175 ng/mL and 28.4 ng/mL. For the same compound, the “Plasma concentration” value ([1]; Day 21, Group 7 (CIA), 30 mg/kg, per animal) was 1620 ng/mL and 1260 ng/mL and 1430 ng/mL and 1220 ng/mL and 1350 ng/mL and 2000 ng/mL and 1440 ng/mL, the “day 20 plasma concentration versus dose” value ([1]; Lewis rats, oral administration) was “appeared to increase in a dose-dependent manner” and the AUClast/D [1, 2] was 528 (ng·h/mL)/(mg/kg). The “AUC—% Extrap—obs” value [1, 2] was 1.11%, the “time at which plasma levels peaked after the second daily dose” value ([1]; Lewis rats, oral, second daily dose administered at 8 h) was 10 h and the concentration at 21 day ([1]; oral, 3 mg/kg, Day 21, Group 5 (CIA), 3 mg/kg, per animal, read-out: Plasma Concentration) was 54.9 ng/mL. It also gave a concentration at 21 day ([1]; oral, 3 mg/kg, Day 21, Group 5 (CIA), 3 mg/kg, read-out: Mean Plasma Concentration) of 59.1 ng/mL, a concentration at 21 day ([1]; oral, 10 mg/kg, Day 21, Group 6 (CIA), 10 mg/kg, read-out: Mean Plasma Concentration) of 208 ng/mL and a concentration at 0.5 h ([1]; oral, 10 mg/kg, oral, day 0, 10 mg/kg, 0.5 h, per test subject, read-out: Plasma concentration) of 738 ng/mL. The concentration at 1 h ([1]; oral, 10 mg/kg, oral, day 0, 10 mg/kg, 1 h, per test subject, read-out: Plasma concentration) was 1090 ng/mL, the concentration at 2 h ([1]; oral, 10 mg/kg, oral, day 0, 10 mg/kg, 2 h, per test subject, read-out: Plasma concentration) was 1110 ng/mL and the concentration at 4 h ([1]; oral, 10 mg/kg, oral, day 0, 10 mg/kg, 4 h, per test subject, read-out: Plasma concentration) was 1170 ng/mL. The concentration at 8 h ([1]; oral, 10 mg/kg, oral, day 0, 10 mg/kg, 8 h, per test subject, read-out: Plasma concentration) was 190 ng/mL, the concentration at 10 h ([1]; oral, 10 mg/kg, oral, day 0, 10 mg/kg, 10 h, per test subject, read-out: Plasma concentration) was 1880 ng/mL and the concentration at 12 h ([1]; oral, 10 mg/kg, oral, day 0, 10 mg/kg, 12 h, per test subject, read-out: Plasma concentration) was 772 ng/mL. The concentration at 14 h ([1]; oral, 10 mg/kg, oral, day 0, 10 mg/kg, 14 h, per test subject, read-out: Plasma concentration) was 324 ng/mL, the concentration at 0.25 h ([1]; oral, 10 mg/kg, oral, day 20, 10 mg/kg, per test subject, read-out: Plasma concentration) was 1260 ng/mL and the concentration at 0.5 h ([1]; oral, 10 mg/kg, oral, day 20, 10 mg/kg, 0.5 h, per test subject, read-out: Plasma concentration) was 1660 ng/mL. It also gave a concentration at 1 h ([1]; oral, 10 mg/kg, oral, day 20, 10 mg/kg, 1 h, per test subject, read-out: Plasma concentration) of 1600 ng/mL, a concentration at 2 h ([1]; oral, 10 mg/kg, oral, day 20, 10 mg/kg, 2 h, per test subject, read-out: Plasma concentration) of 841 ng/mL and a concentration at 4 h ([1]; oral, 10 mg/kg, oral, day 20, 10 mg/kg, 4 h, per test subject, read-out: Plasma concentration) of 452 ng/mL. It also gave a concentration at 10 h ([1]; oral, 10 mg/kg, oral, day 20, 10 mg/kg, 10 h, per test subject, read-out: Plasma concentration) of 1170 ng/mL, a concentration at 12 h ([1]; oral, 10 mg/kg, oral, day 20, 10 mg/kg, 12 h, per test subject, read-out: Plasma concentration) of 258 ng/mL and a concentration at 0.25 h ([1]; oral, 10 mg/kg, oral, day 0, 10 mg/kg, read-out: Mean Concentration) of 502 ng/mL. For the same compound, the concentration at 0.5 h ([1]; oral, 10 mg/kg, oral, day 0, 10 mg/kg, 0.5 h, read-out: Mean Concentration) was 706 ng/mL, the concentration at 1 h ([1]; oral, 10 mg/kg, oral, day 0, 10 mg/kg, 1 h, read-out: Mean Concentration) was 1270 ng/mL and the concentration at 2 h ([1]; oral, 10 mg/kg, oral, day 0, 10 mg/kg, 2 h, read-out: Mean Concentration) was 1240 ng/mL. It also gave a concentration at 4 h ([1]; oral, 10 mg/kg, oral, day 0, 10 mg/kg, 4 h, read-out: Mean Concentration) of 997 ng/mL, a concentration at 8 h ([1]; oral, 10 mg/kg, oral, day 0, 10 mg/kg, 8 h, read-out: Mean Concentration) of 148 ng/mL and a concentration at 10 h ([1]; oral, 10 mg/kg, oral, day 0, 10 mg/kg, 10 h, read-out: Mean Concentration) of 1930 ng/mL. For the same compound, the concentration at 12 h ([1]; oral, 10 mg/kg, oral, day 0, 10 mg/kg, 12 h, read-out: Mean Concentration) was 799 ng/mL, the concentration at 14 h ([1]; oral, 10 mg/kg, oral, day 0, 10 mg/kg, 14 h, read-out: Mean Concentration) was 439 ng/mL and the concentration at 24 h ([1]; oral, 10 mg/kg, oral, day 0, 10 mg/kg) was 57 ng/mL. It also gave a concentration at 0.25 h ([1]; oral, 10 mg/kg, oral, day 20, 10 mg/kg, read-out: Mean Concentration) of 1410 ng/mL, a concentration at 0.5 h ([1]; oral, 10 mg/kg, oral, day 20, 10 mg/kg, 0.5 h, read-out: Mean Concentration) of 1650 ng/mL and a concentration at 1 h ([1]; oral, 10 mg/kg, oral, day 20, 10 mg/kg, 1 h, read-out: Mean Concentration) of 1640 ng/mL. It also gave a concentration at 2 h ([1]; oral, 10 mg/kg, oral, day 20, 10 mg/kg, 2 h, read-out: Mean Concentration) of 1140 ng/mL, a concentration at 4 h ([1]; oral, 10 mg/kg, oral, day 20, 10 mg/kg, 4 h, read-out: Mean Concentration) of 494 ng/mL and a concentration at 8 h ([1]; oral, 10 mg/kg, oral, day 20, 10 mg/kg, 8 h, read-out: Mean Concentration) of 169 ng/mL. The concentration at 10 h ([1]; oral, 10 mg/kg, oral, day 20, 10 mg/kg, 10 h, read-out: Mean Concentration) was 1450 ng/mL, the concentration at 12 h ([1]; oral, 10 mg/kg, oral, day 20, 10 mg/kg, 12 h, read-out: Mean Concentration) was 406 ng/mL and the concentration at 14 h ([1]; oral, 10 mg/kg, oral, day 20, 10 mg/kg, 14 h, read-out: Mean Concentration) was 138 ng/mL. The concentration at 24 h ([1]; oral, 10 mg/kg, oral, day 20, 10 mg/kg) was 25 ng/mL, the concentration at 21 day ([1]; oral, 30 mg/kg, Day 21, Group 7 (CIA), 30 mg/kg, per animal, read-out: Plasma Concentration) was 2290 ng/mL and the concentration at 21 day ([1]; oral, 30 mg/kg, Day 21, Group 7 (CIA), 30 mg/kg, read-out: Mean Plasma Concentration) was 1580 ng/mL. For the same compound, the AUC(0-inf) [1, 3] was 10700 ng·h/mL, the AUC(0-t) [1, 3] was 10600 ng·h/mL and the half-life [1, 3] was 3.28 h. It also gave a Cmax [1, 3] of 1710 ng/mL, an MRT inf [1, 3] of 6.66 h and a Tmax [1, 3] of 0.67 h. It also gave an AUC(0-inf) [1, 4] of 15400 ng·h/mL, an AUC(0-t) [1, 4] of 15000 ng·h/mL and a half-life [1, 4] of 3.22 h. It also gave a Cmax [1, 4] of 1980 ng/mL, an MRT inf [1, 4] of 8.61 h and a Tmax [1, 4] of 7.3 h. It also gave an AUC(0-inf) [1, 5] of 14300 ng·h/mL, an AUC(0-t) [1, 5] of 14300 ng·h/mL and a Cmax [1, 5] of 1880 ng/mL. For the same compound, the MRT inf [1, 5] was 7.64 h, the AUC(0-inf) [1, 6] was 8500 ng·h/mL and the AUC(0-t) [1, 6] was 8420 ng·h/mL. The half-life [1, 6] was 3.46 h, the Cmax [1, 6] was 1660 ng/mL and the MRT inf [1, 6] was 6.09 h. The Tmax [1, 6] was 0.5 h, the Plasma concentration ([1]; oral, day 0, 10 mg/kg, 0.5 h, per test subject) was 673 ng/mL and 707 ng/mL and the Plasma concentration ([1]; oral, day 0, 10 mg/kg, 1 h, per test subject) was 1160 ng/mL and 1550 ng/mL. The Plasma concentration ([1]; oral, day 0, 10 mg/kg, 2 h, per test subject) was 997 ng/mL and 1610 ng/mL, the Plasma concentration ([1]; oral, day 0, 10 mg/kg, 4 h, per test subject) was 1060 ng/mL and 760 ng/mL and the Plasma concentration ([1]; oral, day 0, 10 mg/kg, 8 h, per test subject) was 107 ng/mL and 147 ng/mL. For the same compound, the Plasma concentration ([1]; oral, day 0, 10 mg/kg, 10 h, per test subject) was 2460 ng/mL and 1460 ng/mL, the Plasma concentration ([1]; oral, day 0, 10 mg/kg, 12 h, per test subject) was 968 ng/mL and 656 ng/mL and the Plasma concentration ([1]; oral, day 0, 10 mg/kg, 14 h, per test subject) was 525 ng/mL and 469 ng/mL. For the same compound, the AUClast/D ([1]; oral, day 0, 10 mg/kg, Mean) was 751 (ng·h/mL)/(mg/kg), the “AUC—% Extrap—obs” value ([1]; oral, day 0, 10 mg/kg, Mean) was 2.29% and the AUCInf [1, 7] was 16528 ng·h/mL and 15290 ng·h/mL. The AUClast [1, 7] was 16397 ng·h/mL and 14408 ng·h/mL.
